Data reported in patent US20260151446A1, “IMPROVED ORAL BIOAVAILABILITY FORMULATION FOR MITRAGYNA SPECIOSA (KRATOM)” (priority 2022, published 2026).

Tests used:
[1] = Proof of concept pharmacokinetic / bioavailability study, plasma mitragynine after single dose; type: in vivo, Sprague Dawley rats; settings: male rats
Procedure: Once the capsule formulation was finalized, a proof of concept and safety study was carried out in Sprague Dawley rats. Male and female rats (250±25 g) were purchased from Envigo (Indianapolis, IN, USA) with indwelling jugular vein cannulas and acclimated ≥72 h in a temperature- and humidity-controlled vivarium on a 12 h light/dark cycle. Study protocols were approved by the Institutional Animal Care and Use Committee (IACUC) at the University of Florida, which is fully accredited by the Association for Assessment and Accreditation of Laboratory Animal Care International (AAALAC) and were written in accordance with the National Institutes of Health (NIH) Guide for the Care and Use of Laboratory Animals.
Rats were fasted for 10 h prior to dosing and an additional 2 h post-dose. Rats were dosed with one size 9 gelatin capsule with fill weights of 19.5±0.5 mg, (about 5.1 mg kratom or 2.3 mg mitragynine). […] Rats were connected to an automatic blood collection system (Bioanalytical Systems Inc., West Lafayette, IN, USA) and blood samples were taken at pre-dose, 0.08, 0.17, 0.25, 0.5, 0.75, 1, 2, 4, 6, 8, 12, 18, and 24 h. At the completion of the study, plasma samples were separated by centrifugation at 850×g for 10 min at 4° C. and stored at −20° C. until analysis.
To process plasma (rat or dog) samples for analysis, 20 μL aliquots of each sample were taken. To prepare calibration standards (CS), 2.0 μL of mix stock were added to 18 μL of blank plasma. This generated eight standards of 2.5, 5, 25, 50, 100, 150, 250, and 500 ng/mL, in the respective plasma. The same process was used to generate the lower limit of quantification (LLOQ) (2.5 ng/mL), low quality control (LQC) (6.25 ng/mL), medium quality control MQC (200 ng/mL) and high quality control (HQC) (400 ng/mL). After spiking, the CS and QC samples were vortex mixed for 5 min at 650 rpm. Analytes were precipitated using 100 μL methanol acidified with 0.05% formic acid containing 50 ng/mL IS in a 1:4 ratio. The samples were then vortex mixed for 5 min at 650 rpm before being transferred to a 96-well Millipore Solvinert 0.45 μm filter plate (Burlington, MA, USA) and centrifuged at 850×g for 2 min at 4° C.
A previously reported UPLC-MS/MS method for the quantification of eleven kratom alkaloids was used to analyze all samples^13. Briefly, the mobile phase composed of aqueous ammonium acetate buffer (2.5 mM, pH 3.5, (A)) and acetonitrile (B). The gradient started at 90% A and 10% B, and A was decreased to 75% by 3.5 min and then to 60% by 10 min. […] An Acquity UPLC® BEH C18 column (1.7 μm, 2.1×100 mm) with a VanGuard precolumn of the same chemistry was used for separation (Waters, Milford, MA, USA). The UPLC-MS/MS was a Waters™ Acquity Class-I chromatograph coupled with a Xevo TQ-S Micro triple quadrupole mass spectrometer (Waters, Milford, MA, USA).
The TargetLynx™ application of MassLynx™ 4.2 was used for data processing and quantification of the UPLC-MS/MS data (Waters, Milford, MA, USA). Phoenix Version 6.4 (Certara, Princeton, NJ, USA) was used for the non-compartmental analysis using a linear log interpolation. Graphpad Prism Version 8 (GraphPad Software, San Diego, CA, USA) was used to plot the concentration-time profiles for each dataset. R Studio version 1.4.1717 was used for statistical analysis (R Foundation for Statistical Computing, Vienna, Austria).

[2] = single oral dose of 5 mg/kg mitragynine equivalent; female beagle dogs; cited from earlier work
[3] = rats; delivered as a purified aqueous solution; cited from earlier work
[4] = mitragynine in plasma, oral 20 mg/kg

CC[C@@H]1CN2CCc3c([nH]c4cccc(OC)c34)[C@@H]2C[C@@H]1/C(=C\OC)C(=O)OC [Mitragynine, mitragynine]
Tmax ([1]; Sprague Dawley, rat, in vivo, mitragynine in plasma, oral 20 mg/kg): 24 ± 6 min
bioavailability ([1]; Sprague Dawley, rat, in vivo, mitragynine, oral 20 mg/kg): 37%
AUC/Dose ([1]; mitragynine in plasma, IV […]): 335 ± 16.5 µg·h/L/mg/kg
AUC/Dose [1, 4]: 122.4 ± 13.0 µg·h/L/mg/kg
Cmax/Dose [1, 4]: 22.7 ± 4.9 µg/L/mg/kg
tolerability [2]: well tolerated
bioavailability of mitragynine [3]: 17%
